The assay concerns the target Factor D (Homo sapiens (Human), UniProt P00746). Description: biochemical. The format is biochemical. The note with it: read-out: IC50.

Consider 29 compounds from patent US9085555B2, “Complement pathway modulators and uses thereof” (priority 2011, dated 2015).

pIC50: −log10 of the molar value.

Chain of Factor D (P00746 26-253): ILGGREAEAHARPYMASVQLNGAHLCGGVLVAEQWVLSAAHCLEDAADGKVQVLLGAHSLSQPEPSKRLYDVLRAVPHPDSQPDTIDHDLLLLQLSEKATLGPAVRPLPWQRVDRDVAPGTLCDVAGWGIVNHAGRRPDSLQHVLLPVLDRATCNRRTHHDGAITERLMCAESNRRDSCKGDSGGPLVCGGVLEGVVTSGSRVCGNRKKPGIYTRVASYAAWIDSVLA

One may read the pIC50 as the negative decadic logarithm of the IC50, by convention in mol/L. For the compound `NC(=O)n1cc(NC(=O)N2C[C@@H](N)C[C@H]2C(=O)NC2CCCCC2)c2ccccc21` [Example 77, (2S,4S)-4-Amino-pyrrolidine-1,2-dicarboxylic acid 1-[(1-carbamoyl-1H-indol-3-yl)-amide] 2-cyclohexylamide], the negative logarithm of the IC50 (pIC50) is 4.84.

Turning to `NC(=O)n1cc(NC(=O)N2C[C@@H](N)C[C@H]2C(=O)NC2CCCN(c3ccccn3)C2)c2ccccc21` (stereo partly drawn) [Example 78, (2S,4S)-4-Amino-pyrrolidine-1,2-dicarboxylic acid 1-[(1-carbamoyl-1H-indol-3-yl)-amide] 2-[(3,4,5,6-tetrahydro-2H-[1,2′]bipyridinyl-3-yl)-amide]], the pIC50 is 4.98.

As to `NC(=O)n1cc(NC(=O)N2C[C@@H](N)C[C@H]2C(=O)NC2CCc3ccc(Cl)cc32)c2ccccc21` (stereo partly drawn) [Example 79, (2S,4S)-4-Amino-pyrrolidine-1,2-dicarboxylic acid 1-[(1-carbamoyl-1H-indol-3-yl)-amide] 2-[(6-chloro-indan-1-yl)-amide]], the pIC50 was 5.22. The value for `NC(=O)n1cc(NC(=O)N2C[C@@H](N)C[C@H]2C(=O)NC2CCOc3ccc(Cl)cc32)c2ccccc21` (stereo partly drawn) [Example 80, (2S,4S)-4-Amino-pyrrolidine-1,2-dicarboxylic acid 1-[(1-carbamoyl-1H-indol-3-yl)-amide] 2-[(6-chloro-chroman-4-yl)-amide]] was 4.83; that for `NC(=O)n1cc(NC(=O)N2C[C@@H](N)C[C@H]2C(=O)NCCc2ccccc2)c2ccccc21` [Example 81, (2S,4S)-4-Amino-pyrrolidine-1,2-dicarboxylic acid 1-[(1-carbamoyl-1H-indol-3-yl)-amide] 2-(phenethyl-amide)] was 5.32. Next, `NC(=O)n1cc(NC(=O)N2C[C@@H](N)C[C@H]2C(=O)NCC(O)c2ccccc2)c2ccccc21` (stereo partly drawn) [Example 82, (2S,4S)-4-Amino-pyrrolidine-1,2-dicarboxylic acid 1-[(1-carbamoyl-1H-indol-3-yl)-amide] 2-[(2-hydroxy-2-phenyl-ethyl)-amide]]: 4.61; `NC(=O)n1cc(NC(=O)N2C[C@@H](N)C[C@H]2C(=O)N[C@@H]2C[C@H]2c2ccccc2)c2ccccc21` [Example 83]: 5.65; `C[C@@H](CNC(=O)[C@@H]1C[C@H](N)CN1C(=O)Nc1cn(C(N)=O)c2ccccc12)c1ccccc1` [Example 84, (2S,4S)-4-Amino-pyrrolidine-1,2-dicarboxylic acid 1-[(1-carbamoyl-1H-indol-3-yl)-amide] 2-[((R)-2-phenyl-propyl)-amide]]: 5.22.

With `C[C@H](CNC(=O)[C@@H]1C[C@H](N)CN1C(=O)Nc1cn(C(N)=O)c2ccccc12)c1ccccc1` [Example 85, (2S,4S)-4-Amino-pyrrolidine-1,2-dicarboxylic acid 1-[(1-carbamoyl-1H-indol-3-yl)-amide] 2-[((S)-2-phenyl-propyl)-amide]], the pIC50 is 4.95. The value for `NC(=O)n1cc(NC(=O)N2C[C@@H](N)C[C@H]2C(=O)NCCc2cccc(Cl)c2)c2ccccc21` [Example 86, (2S,4S)-4-Amino-pyrrolidine-1,2-dicarboxylic acid 1-[(1-carbamoyl-1H-indol-3-yl)-amide] 2-{[2-(3-chloro-phenyl)-ethyl]-amide}] was 4.84. Next, `NC(=O)n1cc(NC(=O)N2C[C@@H](N)C[C@H]2C(=O)NCCc2ccccc2Cl)c2ccccc21` [Example 87, (2S,4S)-4-Amino-pyrrolidine-1,2-dicarboxylic acid 1-[(1-carbamoyl-1Hindol-3-yl)-amide] 2-{[2-(2-chloro-phenyl)-ethyl]-amide}]: 5.33. The value for `NC(=O)n1cc(NC(=O)N2C[C@@H](N)C[C@H]2C(=O)NCCc2ccccc2F)c2ccccc21` [Example 88, (2S,4S)-4-Amino-pyrrolidine-1,2-dicarboxylic acid 1-[(1-carbamoyl-1Hindol-3-yl)-amide] 2-{[2-(2-fluoro-phenyl)-ethyl]-amide}] was 5.17; that for `NC(=O)n1cc(NC(=O)N2C[C@@H](N)C[C@H]2C(=O)NCCc2cccc(F)c2)c2ccccc21` [Example 89, (2S,4S)-4-Amino-pyrrolidine-1,2-dicarboxylic acid 1-[(1-carbamoyl-1Hindol-3-yl)-amide] 2-{[2-(3-fluoro-phenyl)-ethyl]-amide}] was 5.11; that for `NC(=O)n1cc(NC(=O)N2C[C@@H](N)C[C@H]2C(=O)NCCc2cc(F)cc(Cl)c2)c2ccccc21` [Example 90, (2S,4S)-4-Amino-pyrrolidine-1,2-dicarboxylic acid 1-[(1-carbamoyl-1H-indol-3-yl)-amide] 2-{[2-(3-chloro-5-fluoro-phenyl)-ethyl]-amide}] was 5.94. `CC[C@H](C)[C@H](NC(=O)[C@@H]1C[C@H](N)CN1C(=O)Nc1cn(C(N)=O)c2ccccc12)C(=O)OC` [Example 92, (2S,3S)-2-{[(2S,4S)-4-Amino-1-(1-carbamoyl-1H-indol-3-ylcarbamoyl)-pyrrolidine-2-carbonyl]-amino}-3-methyl-pentanoic acid methyl ester]: the negative-log IC50 (pIC50) is 5.06. `CCC[C@H](NC(=O)[C@@H]1C[C@H](N)CN1C(=O)Nc1cn(C(N)=O)c2ccccc12)C(=O)OC` [Example 93, (S)-2-{[(2S,4S)-4-Amino-1-(1-carbamoyl-1H-indol-3-ylcarbamoyl)-pyrrolidine-2-carbonyl]-amino}-pentanoic acid methyl ester]: the negative logarithm of the IC50 (pIC50) was 5.40.

As to `COC(=O)[C@H](CC(C)C)NC(=O)[C@@H]1C[C@H](N)CN1C(=O)Nc1cn(C(N)=O)c2ccccc12` [Example 95, (S)-2-{[(2S,4S)-4-Amino-1-(1-carbamoyl-1H-indol-3-ylcarbamoyl)-pyrrolidine-2-carbonyl]-amino}-4-methyl-pentanoic acid methyl ester], the negative logarithm of the IC50 (pIC50) was 5.87. Next, `COC(=O)[C@H](COC(C)(C)C)NC(=O)[C@@H]1C[C@H](N)CN1C(=O)Nc1cn(C(N)=O)c2ccccc12` [Example 96, (S)-2-{[(2S,4S)-4-Amino-1-(1-carbamoyl-1H-indol-3-ylcarbamoyl)-pyrrolidine-2-carbonyl]-amino}-3-tert-butoxy-propionic acid methyl ester]: 5.09; `COC(=O)[C@H](Cc1ccccc1)NC(=O)[C@@H]1C[C@H](N)CN1C(=O)Nc1cn(C(N)=O)c2ccccc12` [Example 97, (S)-2-{[(2S,4S)-4-Amino-1-(1-carbamoyl-1H-indol-3-ylcarbamoyl)-pyrrolidine-2-carbonyl]-amino}-3-phenyl-propionic acid methyl ester]: 6.05; `COC(=O)[C@@H](NC(=O)[C@@H]1C[C@H](N)CN1C(=O)Nc1cn(C(N)=O)c2ccccc12)c1ccccc1` [Example 98, (S)-{[(2S,4S)-4-Amino-1-(1-carbamoyl-1H-indol-3-ylcarbamoyl)-pyrrolidine-2-carbonyl]-amino}-phenyl-acetic acid methyl ester]: 5.73. The value for `CC[C@H](C)[C@H](NC(=O)[C@@H]1C[C@H](N)CN1C(=O)Nc1cn(C(N)=O)c2ccccc12)C(N)=O` [Example 99, (2S,4S)-4-Amino-pyrrolidine-1,2-dicarboxylic acid 1-[(1-carbamoyl-1H-indol-3-yl)-amide] 2-[((1S,2S)-1-carbamoyl-2-methyl-butyl)-amide]] was 4.63. Next, `CCc1cccc(CNC(=O)[C@@H]2C[C@H](N)CN2C(=O)Nc2cn(C(N)=O)c3ccccc23)c1` [Example 100, (2S,4S)-4-Amino-pyrrolidine-1,2-dicarboxylic acid 1-[(1-carbamoyl-1H-indol-3-yl)-amide] 2-(3-ethyl-benzylamide)]: 4.76; `CC[C@H](C)[C@@H](CO)NC(=O)[C@@H]1C[C@H](N)CN1C(=O)Nc1cn(C(N)=O)c2ccccc12` [Example 101, (2S,4S)-4-Amino-pyrrolidine-1,2-dicarboxylic acid 1-[(1-carbamoyl-1H-indol-3-yl)-amide] 2-[((1S,2S)-1-hydroxymethyl-2-methyl-butyl)-amide]]: 4.82; `CC(C)c1cccc(NC(=O)[C@@H]2C[C@H](N)CN2C(=O)Nc2cn(C(N)=O)c3ccccc23)c1` [Example 102, (2S,4S)-4-Amino-pyrrolidine-1,2-dicarboxylic acid 1-[(1-carbamoyl-1H-indol-3-yl)-amide]2-[(3-isopropyl-phenyl)-amide]]: 6.25. In the case of `NC(=O)n1cc(NC(=O)N2C[C@@H](N)C[C@H]2C(=O)Nc2cccc(-c3ccccc3)c2)c2ccccc21` [Example 103, (2S,4S)-4-Amino-pyrrolidine-1,2-dicarboxylic acid 2-biphenyl-3-ylamide 1-[(1-carbamoyl-1H-indol-3-yl)-amide]], the negative logarithm of the IC50 (pIC50) is 6.26. Next, `NC(=O)n1cc(NC(=O)N2C[C@H](F)C[C@H]2CNS(=O)(=O)c2ccccc2F)c2ccccc21` [Example 104, 3-({(2S,4R)-4-Fluoro-2-[(2-fluoro-benzenesulfonylamino)-methyl]-pyrrolidine-1-carbonyl}-amino)-indole-1-carboxylic acid amide]: 5.83. The value for `NC(=O)n1cc(NC(=O)N2C[C@H](F)C[C@H]2CNS(=O)(=O)c2ccccc2)c2ccccc21` [Example 105, 3-{[(2S,4R)-2-(Benzenesulfonylamino-methyl)-4-fluoro-pyrrolidine-1-carbonyl]-amino}-indole-1-carboxylic acid amide] was 6.10; that for `NC(=O)n1cc(NC(=O)N2C[C@H](F)C[C@H]2CNS(=O)(=O)c2cccc(F)c2)c2ccccc21` [Example 106, 3-({(2S,4R)-4-Fluoro-2-[(3-fluoro-benzenesulfonylamino)-methyl]-pyrrolidine-1-carbonyl}-amino)-indole-1-carboxylic acid amide] was 6.15.

As for `NC(=O)n1cc(NC(=O)N2C[C@H](F)C[C@H]2CNS(=O)(=O)c2cccc(Cl)c2)c2ccccc21` [Example 107, 3-({(2S,4R)-4-Fluoro-2-[(3-chloro-benzenesulfonylamino)-methyl]-pyrrolidine-1-carbonyl}-amino)-indole-1-carboxylic acid amide], the pIC50 was 7.12.
